This is an account of results in article doi:10.1101/2022.10.08.511406v1 (biorxiv, 2022).

For this test, the target named is T1, YTH domain of YTHDF1 (Homo sapiens, UniProt Q9BYJ9).
T1 sequence (Q9BYJ9 361-559): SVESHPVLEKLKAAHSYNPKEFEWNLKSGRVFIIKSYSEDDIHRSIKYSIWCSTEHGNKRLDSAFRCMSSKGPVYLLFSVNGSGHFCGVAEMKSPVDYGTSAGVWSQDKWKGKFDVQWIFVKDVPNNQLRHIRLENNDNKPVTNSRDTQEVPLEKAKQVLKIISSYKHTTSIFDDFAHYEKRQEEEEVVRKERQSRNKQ
The experiment in a line: SPR competition. The test is classed as binding.

Molecules are shown by their SMILES.

The molecule `CCCCCNC(=N)N/N=C/c1c[nH]c2ccc(OC)cc12` [tegaserod] registered an IC50 of 13.8 µM.
